According to patent US12419619B2, “Aspiration device” (YALE UNIVERSITY, priority 2016, dated 2025):

Legend:
[1] = intraosseous infusion; cited from earlier work
stem cells = conditions: novel dual-lumen device with lidocaine infusion, without pressure modulation; live porcine model, N=4, control single-hole device
Method: The colony forming unit (CFU) assay is an accepted measure of relative stem cell concentrations in BMA. […] A preliminary (N=4) trial of BMA in a live porcine model was performed comparing a single-hole cancer aspiration device to the novel dual-lumen BMA method.

CCN(CC)CC(=O)Nc1c(C)cccc1C [lidocaine]
whole-bone anesthesia [1]: effective in whole-bone anesthesia
CFU/mL of aspirate versus control (stem cells): more than doubled
